Entries after “also recorded” stand apart in the source; their conditions may differ.
Experiments:
Format in all cases: cell-based, human
[1] = system: MDA-MB-231 cells overexpressing the FGFR4 Arg388 allele; conditions: FGFR4 Arg388 expressing cells; Gefitinib 0.025-20 μM
[2] = system: MDA-MB-231 cells expressing FGFR4 Gly388; conditions: up to 20 μM of Gefitinib
[3] = system: MDA-MB-231 cells expressing the empty pLXSN vector; test: MTT-proliferation assay with Gefitinib; conditions: up to 20 μM of Gefitinib
[4] = system: MDA-MB-231 cells expressing the FGFR4 Arg388 allele; conditions: FIG. 20C
[5] = system: FGFR4 Arg388 expressing MDA-MB-231 cells; test: Apoptosis in response to Gefitinib treatment; conditions: Gefitinib 20 μM (p=0.012) and 10 μM (p=0.0022); 96 hours
Description: In a preferred embodiment, the proliferation rate is determined via a MTT proliferation assay, the apoptosis is determined via FACS analysis (Nicoletti et al., 1991, J. Immunol. Methods, 139: 271-279), and/or the migration is determined with a Boyden Chamber Assay, e.g. as described in the Examples below.
To further analyze the physiological connection between the EGFR and the FGFR4 we investigated the differences between the different FGFR4 alleles in MDA-MB-231 overexpressing cells upon exposure to Gefitinib. […]. Therefore, physiological processes that require the dimerization of the EGFR and the FGFR4 should lead to different results in the presence of Gefitinib compared to those obtained without an EGFR inhibitor. […]. Therefore, we investigated the impact of FGFR4 Arg388 overexpression on apoptosis in response to Gefitinib treatment in MDA-MB-231 cells. […]; 10 μM-p=0.0022). […].

## COc1cc2ncnc(Nc3ccc(F)c(Cl)c3)c2cc1OCCCN1CCOCC1 [Gefitinib]
[1]
  response in MTT-proliferation assay: typical dose response curve
[2]
  response in MTT-proliferation assay: no response
[3]
  response in MTT-proliferation assay: no response
[4]
  migration in FGFR4 Arg388 cells compared to FGFR4 Gly388 cells in response to Gefitinib: decrease in migration
[5]
  apoptotic response in FGFR4 Arg388 cells compared to FGFR4 Gly388 cells: significantly increased apoptotic response; also recorded: significant increase in apoptosis

— patent publication US20110179505A1, “RODENT CANCER MODEL FOR HUMAN FGFR4 ARG388 POLYMORPHISM” (priority 2008, published 2011)
